Measured values taken from US20130123319A1, “Medthod of Treating a systemic inflammatory disorder and damaged internal tissues” (priority 2011, published 2013).
Read-outs that look alike come from different tables or passages of the source.

Columns and labels:
[1] = tested on: Behcet's Disease; assay: Case reports: patients with exacerbation of Behcet's Disease; format: in vivo, human
From the text: Behcet's Syndrome is a worldwide disorder that seems to be more severe and more common along the Silk Route and in Japan.
This happened back in the year 2000.

[2] = tested on: Myasthenia Gravis without Thymoma; assay: Case report: patient with Myasthenia Gravis given intravenous nutritional infusion; format: in vivo, human; details: day 5 of the hospitalization
Description: In 1990 I began to treat a patient with Myasthenia Gravis without Thymoma, an autoimmune disorder, which causes a decrease in the availability of Acetylcholine at the muscle endplate. Pyridostigmine, which increases the amount of Acetylcholine available at the endplate, and later Prednisone, was added for control of their myasthenia. The later acts by reducing the inflammatory response at the muscle endplate. In 1992 they underwent a bowel operation for correction of an enterorectal fistula and was unable to eat orally or gastrically to be fed. They were put on the standardized intravenous nutritional protocol in the hospital in which I worked, which included 3% Glycerin plus 3% Amino Acids, (see Table 1) at a rate of 100 ccs/hour. This was given for 6 days. There was no change in their Myasthenia Gravis. Twelve days later they were readmitted with abdominal pain and the same IV nutrition was administered. On day 5 of the hospitalization they developed a cholinergic crisis, which was relieved by Atropine. Pyridostigmine and Prednisone were discontinued. […] They were readmitted to the hospital 4 years later because of difficulty swallowing and again was given intravenous 3% Glycerin and 3% Amino Acids. […]

[3] = tested on: bacteria; details: virus specimens; more potent when mixed with serum; cited from earlier work
[4] = in vivo, cited from earlier work

## C[C@]12C=CC(=O)C=C1CC[C@@H]1[C@@H]2C(=O)C[C@@]2(C)[C@H]1CC[C@]2(O)C(=O)CO [Prednisone, reference compound]
[1]; eleven patients, high dose
  response of Behcet's exacerbation: failed to respond
[1]; over 20 patients since 2000, high doses
  response of Behcet's exacerbations: usually responded

## CN1[C@@H]2CC[C@H]1C[C@@H](OC(=O)C(CO)c1ccccc1)C2 (some centres unmarked) [Atropine]
[2]
  cholinergic crisis: relieved

## OCC(O)CO [Glycerin]
[3]
  bacteria in the specimens: reduced bacteria
[1]; inventor's review of the cases
  rate of improvement in autoimmune diseases, especially Behcet's Disease: quick or rapid improvement
[1]; one patient with neuro-Behcet's disease
  central nervous system involvement: improved central nervous system involvement rapidly
[4]
  toxicity: low toxicity
[4]; listed as Sterilized Glycerin
  toxicity: non-toxic
